Target: T1, ERK5 (Homo sapiens, UniProt Q13164)
T1 construct: made in house
Experiment: ERK5 IMAP assay (fluorescence polarisation)
Assay type: biochemical
Details: average (e.g. geometric mean) where more than one data point; read-out: ERK5 IC50

T1 sequence (Q13164 whole entry): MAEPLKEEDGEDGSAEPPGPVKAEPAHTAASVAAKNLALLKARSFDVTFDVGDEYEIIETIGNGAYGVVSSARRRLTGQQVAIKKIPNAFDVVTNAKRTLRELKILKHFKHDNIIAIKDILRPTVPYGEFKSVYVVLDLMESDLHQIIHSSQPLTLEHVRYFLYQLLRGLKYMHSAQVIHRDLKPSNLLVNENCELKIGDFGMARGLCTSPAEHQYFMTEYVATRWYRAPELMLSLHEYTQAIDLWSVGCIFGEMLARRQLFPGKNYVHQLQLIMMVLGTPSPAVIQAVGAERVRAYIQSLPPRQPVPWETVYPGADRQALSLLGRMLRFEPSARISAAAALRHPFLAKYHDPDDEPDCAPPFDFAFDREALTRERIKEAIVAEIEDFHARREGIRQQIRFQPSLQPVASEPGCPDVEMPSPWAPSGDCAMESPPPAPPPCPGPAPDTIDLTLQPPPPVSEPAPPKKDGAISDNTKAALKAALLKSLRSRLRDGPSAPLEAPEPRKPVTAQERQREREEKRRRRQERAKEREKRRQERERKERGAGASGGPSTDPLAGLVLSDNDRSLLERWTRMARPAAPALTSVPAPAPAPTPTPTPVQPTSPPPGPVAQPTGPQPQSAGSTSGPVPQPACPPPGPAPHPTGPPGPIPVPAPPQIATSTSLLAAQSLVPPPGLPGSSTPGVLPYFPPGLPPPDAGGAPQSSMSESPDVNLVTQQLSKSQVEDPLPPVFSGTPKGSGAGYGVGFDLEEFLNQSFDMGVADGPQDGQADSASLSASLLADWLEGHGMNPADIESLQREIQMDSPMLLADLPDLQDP

IC50	SMILES
3460 nM	CCc1ccc(F)c(C(=O)c2c[nH]c(C(=O)Nc3cncnc3)c2)c1F [Example 163, 4-(3-Ethyl-2,6-difluorobenzoyl)-N-(pyrimidin-5-yl)-1H-pyrrole-2-carboxamide]
610 nM	CCc1ccc(F)c(C(=O)c2c[nH]c(C(=O)NC3CCN(C)CC3)c2)c1F [Example 164, 4-(3-Ethyl-2,6-difluorobenzoyl)-N-(1-methylpiperidin-4-yl)-1H-pyrrole-2-carboxamide]
1580 nM	C=Cc1ccc(F)c(C(=O)c2c[nH]c(C(=O)Nc3cccnc3)c2)c1F [Example 165, 4-(2,6-Difluoro-3-vinylbenzoyl)-N-(pyridin-3-yl)-1H-pyrrole-2-carboxamide]
1370 nM	C=Cc1ccc(F)c(C(=O)c2c[nH]c(C(=O)Nc3cncnc3)c2)c1F [Example 166, 4-(2,6-Difluoro-3-vinylbenzoyl)-N-(pyrimidin-5-yl)-1H-pyrrole-2-carboxamide]
2450 nM	C=C(C)c1ccc(F)c(C(=O)c2c[nH]c(C(=O)Nc3cccnc3)c2)c1F [Example 168, 4-(2,6-Difluoro-3-(prop-1-en-2-yl)benzoyl)-N-(pyridin-3-yl)-1H-pyrrole-2-carboxamide]
265 nM	O=C(Nc1cccnc1)c1cc(C(=O)c2c(F)ccc(Cl)c2Cl)c[nH]1 [Example 169, 4-(2,3-Dichloro-6-fluorobenzoyl)-N-(pyridin-3-yl)-1H-pyrrole-2-carboxamide]
346 nM	O=C(Nc1cncnc1)c1cc(C(=O)c2c(F)ccc(Cl)c2Cl)c[nH]1 [Example 170, 4-(2,3-Dichloro-6-fluorobenzoyl)-N-(pyrimidin-5-yl)-1H-pyrrole-2-carboxamide]
283 nM	CN1CCC(NC(=O)c2cc(C(=O)c3c(F)ccc(Cl)c3Cl)c[nH]2)CC1 [Example 171, 4-(2,3-Dichloro-6-fluorobenzoyl)-N-(1-methylpiperidin-4-yl)-1H-pyrrole-2-carboxamide]
115 nM	CN1CCC(NC(=O)c2cc(C(=O)c3c(Cl)ccc(Cl)c3F)c[nH]2)CC1 [Example 174, 4-(3,6-dichloro-2-fluorobenzoyl)-N-(1-methylpiperidin-4-yl)-1H-pyrrole-2-carboxamide]
649 nM	Cc1ccc(F)c(C(=O)c2c[nH]c(C(=O)Nc3cccnc3)c2)c1Cl [Example 175, 4-(2-Chloro-6-fluoro-3-methylbenzoyl)-N-(pyridin-3-yl)-1H-pyrrole-2-carboxamide]
1180 nM	Cc1ccc(F)c(C(=O)c2c[nH]c(C(=O)Nc3cncnc3)c2)c1Cl [Example 176, 4-(2-Chloro-6-fluoro-3-methylbenzoyl)-N-(pyrimidin-5-yl)-1H-pyrrole-2-carboxamide]
472 nM	Cc1ccc(F)c(C(=O)c2c[nH]c(C(=O)NC3CCN(C)CC3)c2)c1Cl [Example 177, 4-(2-Chloro-6-fluoro-3-methylbenzoyl)-N-(1-methylpiperidin-4-yl)-1H-pyrrole-2-carboxamide]
515 nM	Cc1ccc(Cl)c(C(=O)c2c[nH]c(C(=O)Nc3cccnc3)c2)c1F [Example 178, 4-(6-Chloro-2-fluoro-3-methylbenzoyl)-N-(pyridin-3-yl)-1H-pyrrole-2-carboxamide]
263 nM	Cc1ccc(Cl)c(C(=O)c2c[nH]c(C(=O)Nc3cncnc3)c2)c1F [Example 179, 4-(6-Chloro-2-fluoro-3-methylbenzoyl)-N-(pyrimidin-5-yl)-1H-pyrrole-2-carboxamide]
490 nM	Cc1ccc(Cl)c(C(=O)c2c[nH]c(C(=O)NC3CCN(C)CC3)c2)c1F [Example 180, 4-(6-Chloro-2-fluoro-3-methylbenzoyl)-N-(1-methylpiperidin-4-yl)-1H-pyrrole-2-carboxamide]
66.5 nM	O=C(Nc1cccnc1)c1cc(C(=O)c2c(Cl)ccc(Br)c2F)c[nH]1 [Example 181, 4-(3-Bromo-6-chloro-2-fluorobenzoyl)-N-(pyridin-3-yl)-1H-pyrrole-2-carboxamide]
606 nM	O=C(Nc1cncnc1)c1cc(C(=O)c2c(Cl)ccc(Br)c2F)c[nH]1 [Example 182, 4-(3-Bromo-6-chloro-2-fluorobenzoyl)-N-(pyrimidin-5-yl)-1H-pyrrole-2-carboxamide]
1900 nM	Cc1cccc(F)c1C(=O)c1c[nH]c(C(=O)Nc2ccncc2)c1 [Example 185, 4-(2-Fluoro-6-methylbenzoyl)-N-(pyridin-4-yl)-1H-pyrrole-2-carboxamide]
2570 nM	Cc1cccc(F)c1C(=O)c1c[nH]c(C(=O)Nc2cccnc2)c1 [Example 186, 4-(2-Fluoro-6-methylbenzoyl)-N-(pyridin-3-yl)-1H-pyrrole-2-carboxamide]
1080 nM	CC(C)(C)OC(=O)N1CCC(NC(=O)c2cc(C(=O)c3c(F)cccc3Cl)c[nH]2)CC1 [Example 193, tert-Butyl 4-(4-(2-chloro-6-fluorobenzoyl)-1H-pyrrole-2-carboxamido)piperidine-1-carboxylate]
845 nM	O=C(NC1CCOCC1)c1cc(C(=O)c2c(F)cccc2Cl)c[nH]1 [Example 194, 4-(2-Chloro-6-fluorobenzoyl)-N-(tetrahydro-2H-pyran-4-yl)-1H-pyrrole-2-carboxamide]
289 nM	CN1CCC(NC(=O)c2cc(C(=O)c3c(F)cccc3Br)c[nH]2)CC1 [Example 195, 4-(2-Bromo-6-fluorobenzoyl)-N-(1-methylpiperidin-4-yl)-1H-pyrrole-2-carboxamide]
2720 nM	CC(C)(C)OC(=O)N1CCC(NC(=O)c2cc(C(=O)c3c(F)cccc3Br)c[nH]2)CC1 [Example 196, tert-Butyl 4-(4-(2-bromo-6-fluorobenzoyl)-1H-pyrrole-2-carboxamido)piperidine-1-carboxylate]
1220 nM	O=C(NC1CCOCC1)c1cc(C(=O)c2c(F)cccc2Br)c[nH]1 [Example 198, 4-(2-Bromo-6-fluorobenzoyl)-N-(tetrahydro-2H-pyran-4-yl)-1H-pyrrole-2-carboxamide]
12700 nM	CCc1cccc(F)c1C(=O)c1c[nH]c(C(=O)Nc2cccnc2)c1 [Example 199, 4-(2-Ethyl-6-fluorobenzoyl)-N-(pyridin-3-yl)-1H-pyrrole-2-carboxamide]
4980 nM	CCc1cccc(F)c1C(=O)c1c[nH]c(C(=O)NC2CCNCC2)c1 [Example 200, 4-(2-Ethyl-6-fluorobenzoyl)-N-(piperidin-4-yl)-1H-pyrrole-2-carboxamide]
4970 nM	CCc1cccc(F)c1C(=O)c1c[nH]c(C(=O)NC2CCN(C)CC2)c1 [Example 201, 4-(2-Ethyl-6-fluorobenzoyl)-N-(1-methylpiperidin-4-yl)-1H-pyrrole-2-carboxamide]
23000 nM	O=C(Nc1cccnc1)c1cc(C(=O)c2c(F)cccc2C2CC2)c[nH]1 [Example 202, 4-(2-Cyclopropyl-6-fluorobenzoyl)-N-(pyridin-3-yl)-1H-pyrrole-2-carboxamide]
5820 nM	O=C(NC1CCNCC1)c1cc(C(=O)c2c(F)cccc2C2CC2)c[nH]1 [Example 203, 4-(2-Cyclopropyl-6-fluorobenzoyl)-N-(piperidin-4-yl)-1H-pyrrole-2-carboxamide]
8230 nM	CN1CCC(NC(=O)c2cc(C(=O)c3c(F)cccc3C3CC3)c[nH]2)CC1 [Example 204, 4-(2-Cyclopropyl-6-fluorobenzoyl)-N-(1-methylpiperidin-4-yl)-1H-pyrrole-2-carboxamide]
